Experimental data as given in patent US20230080252A1, “ANTICANCER ADJUVANT AND PHARMACEUTICAL COMPOSITION FOR TREATING ANTICANCER-AGENT-RESISTANT CANCER, AND KIT COMPRISING SAME” (DONG-A UNIVERSITY RESEARCH FOUNDATION FOR INDUSTRY-ACADEMY …, priority 2020, published 2023).

Tests used:
[1] = tested on: p-CHK1 (ATR-CHK1 pathway); assay: CHK1 phosphorylation (immunoblot / immunostaining) after UV or HU; type: cell-based, human; details: inhibitor added after UV irradiation, fixed after 2 hours, anti-p-CHK1 immunostaining
From the text: FIG. 1D is a quantification of the percentage of p-CHK1-positive cells from UV-treated data of FIG. 1C. […] In each experiment, >100 cells were randomly chosen to determine the percentage of p-CHK1-positive cells.
The two DNA damage response kinases ATR and ATM play key roles in the protection of genomic integrity from genotoxic stress by sensing a single-strand break and DSB (Double strand break), respectively. To identify the functions of TTP in the DNA damage response, we first analyzed the phosphorylation levels of CHK1 (p-CHK1) and CHK2 (p-CHK2) as readouts of ATR and ATM activity, respectively.
Then, we treated cells with HU, another CHK1 phosphorylation-triggering agent which depletes the deoxynucleoside triphosphate pool, thus inducing the RSR (Replication Stress Response).

[2] = tested on: A549 (human lung carcinoma) cells; assay: DNA fiber analysis of replication forks; type: cell-based; details: unperturbed A549 cells; IdU and CldU 20 min each; control 0.36 μm/min
Description: The ratios of CldU to IdU were calculated from active replication forks. […] Single-strand DNA (ssDNA; blue) was labelled with ssDNA-specific antibodies. Percentages of stalled forks were calculated by dividing the number of red-only tracts (stalled forks) by the total number of red-only plus red-green tracts (stalled and restarted forks, respectively). Analyses were performed on a minimum of 200 individual DNA fibers. […] The recovery of S phase progression is presented as a percentage of EdU positive cells at 6 h after the release from HU treatment. In each experiment, >100 cells were randomly chosen to determine the percentage of EdU-positive cells. […] The ratio of CldU to IdU in terms of length was calculated from active replication forks (red-green). […]
(1) ATR-CHK1 pathway accounts for the central replication stress responses and once activated it helps the cell to survive and faithfully complete DNA replication under stress. Having shown that TTP is found to be implicated in the ATR-CHK1 activation, as in Example 1 above, we decided to examine the effect of TTP on the replication fork stability using DNA fiber analysis, the clearest read-out of replication stress which relies on the incorporation of nucleotide analogues. […]
(3) We next examined the involvement of TTP in stalled fork protection. […] We then analyzed the relative shortening of CldU fiber as indicative of fork degradation. […]

Row | Molecule | residual p-CHK1 signal in TTP-deficient cells [1] | average fork velocity [2]
1 | CNCc1ccc(-c2cc(-c3nc(-c4ccc(S(=O)(=O)C(C)C)cc4)cnc3N)on2)cc1 [VE-822] | vanished | 
2 | siClaspin: siRNA (SEQ ID NO: 20) introduced into cells to make Claspin-deficient cells (AACCUUGCUUAGAGCUGAGUCUUCA; listed as RNA, chemistry not given here) |  | 0.22 μm/min
